Data set [1] in a line: Stability of the compound assessed as cleaved half life in presence of CEM/0 cell extract medium measured upto 25 hrs by RP-HPLC analysis. Format: physicochemical. Conditions: human.
A short description of data set [2]: Metabolic stability of the compound in pig liver extract assessed as half life measured after 24 hrs in presence of pig liver extract medium by RP-HPLC analysis. The data set is classed as ADME, tissue-based, Sus scrofa.
The nature of data set [3]: Metabolic stability of the compound in mouse liver extract assessed as compound remaining measured after 24 hrs in presence of mouse liver extract medium by RP-HPLC analysis relative to control. The data set is classed as ADME, tissue-based. Conditions: read-out: Stability.
Data set [4] is described as follows: Chemical stability in PBS buffer assessed half life measured after 24 hrs in presence of CEM/0 cell extract medium by RP-HPLC analysis relative to control. Format: physicochemical. Conditions: human, PBS buffer with CEM/0 cell extract.
Data set [5] can be described thus: Chemical stability in PBS buffer assessed dephosphorylated half life measured after 24 hrs in presence of CEM/0 cell extract medium by RP-HPLC analysis relative to control. Format: physicochemical. Conditions: human, PBS buffer with CEM/0 cell extract.
A short description of data set [6]: Stability in PBS buffer assessed as clevage of first masking group half life in at pH 7.3 in presence of CEM/0 cell extract medium by RP-HPLC analysis. Format: physicochemical. Conditions: human, PBS buffer with CEM/0 cell extract.
Data set [7] is described as follows: Stability in buffer assessed as pig liver esterase-mediated clevage of first masking group half life at pH 7.3 by RP-HPLC analysis. The data set is classed as ADME, tissue-based.
A short description of data set [8]: Metabolic stability of the compound in mouse liver extract assessed as hydrolysis half life measured after 24 hrs in presence of mouse liver extract medium by RP-HPLC analysis. Format: ADME, tissue-based.
Data set [9] concerns Human immunodeficiency virus. Kind of data set: Substrate activity at HIV reverse transcriptase assessed as DNA elongation using 5'-Cy3-CGTTG GTCCT GAAGG AGGAT AGG1T-3' as primer and 3'-GCAACCAGGACTTCCTCCTATCCAAAGACA-5' as template incubated at 37 degree C for 15 mins and at 80 degreeC for 3 mins by primer extension assay. Conditions: time 18.0 min.
In data set [10] the target is DNA polymerase beta (Homo sapiens) (UniProt P06746). Description: Substrate activity at human DNA polymerase beta using 5'-Cy3-CGTTG GTCCT GAAGG AGGAT AGG1T-3' as primer and 3'-GCAACCAGGACTTCCTCCTATCCAAAGACA-5' as template incubated at 37 degree C for 60 mins and at 80 degreeC for 3 mins by primer extension assay. Conditions: time 63.0 min.
For data set [11], the system named is Human immunodeficiency virus. Description: Substrate activity at HIV reverse transcriptase assessed as DNA elongation using 5'-Cy3-CGTTG GTCCT GAAGG AGGAT AGG1T-3' as primer and 3'-GCAACCAGGACTTCCTCCTATCCAAAGACA-5' as template incubated at 37 degree C for 15 mins and at 80 degreeC for 3 mins in presence of TTP by primer extension assay. Conditions: time 18.0 min.

Data set [12] deals with Human immunodeficiency virus 1. Description: Antiviral activity against HIV1 HE strain infected in CEM/0 cells assessed as inhibition of HIV induced cytopathogenic effects. Format: functional, organism-based. Conditions: Human immunodeficiency virus 1, HE, CCRF-CEM. A general note: Cytopathic effects are the visible damage that an infection or toxin causes in cultured cells.

For data set [13], the system named is Human immunodeficiency virus 2. Description: Antiviral activity against HIV2 ROD infected in CEM/0 cells assessed as inhibition of HIV induced cytopathogenic effects. Format: functional, organism-based. Conditions: Human immunodeficiency virus 2, ROD, CCRF-CEM.
Data set [14] relates to Human immunodeficiency virus 2. Kind of data set: Antiviral activity against […] HIV2 ROD infected in CEM-TK(-) cells assessed as inhibition of HIV induced cytopathogenic effects. Format: functional, organism-based. Conditions: Human immunodeficiency virus 2, ROD.
A short description of data set [15]: Cytotoxicity in human CEM/0 cells assessed as reduction in cell viability. The data set is classed as toxicity, cell-based. Conditions: CEM/0 cells (CCRF-CEM).

Active and inactive are the calls of the source.

One may read the half-life as the time needed for the level to fall by half in the phase considered. Regarding `CCCCCCCCCCCCCCCCOP(=O)(OCc1ccc(OC(=O)CCC)cc1)OP(=O)(O)OP(=O)(O)OC[C@H]1O[C@@H](n2cc(C)c(=O)[nH]c2=O)C[C@@H]1F.N.N` (stereo partly drawn), the half-life is 144 min in [1] and 0.582 min in data set [2].

Regarding `CCCCCCCCCCCCCCCCOP(=O)(O)OP(=O)(O)OP(=O)(O)OC[C@H]1O[C@@H](n2cc(C)c(=O)[nH]c2=O)C[C@@H]1F`, the remaining at 24 h in [3] came out at 39%.

Turning to `Cc1cn([C@H]2C[C@H](O)[C@@H](COP(=O)(O)OP(=O)(O)OP(=O)(O)O)O2)c(=O)[nH]c1=O` [DEOXYTHYMIDINE_TRIPHOSPHATE], the half-life in data set [4] is 30 min; in data set [5] it was 25.8 min.

Turning to `CCCCCCCCCC(=O)Oc1ccc(COP(=O)(OCc2ccc(OC(=O)CCCCCCCCC)cc2)OP(=O)([O-])OP(=O)([O-])OC[C@H]2O[C@@H](n3cc(C)c(=O)[nH]c3=O)C[C@@H]2F)cc1.[Na+].[Na+]`, the half-life in [6] was 81 h; in data set [7], 3.16 min; in data set [1], 140 min.

Consider `Cc1cn([C@H]2C[C@H](F)[C@@H](COP(=O)(O)OP(=O)(O)OP(=O)(O)O)O2)c(=O)[nH]c1=O.N.N.N.N`, for which the half-life is 30 min in data set [4], 25.8 min in data set [5] and 5.04 min in data set [8]. The outcome in data set [9], in data set [10] and in data set [11] was Active.

As usually defined, the EC50 is the concentration that produces a half-maximal response. For orientation: CC50 means the concentration that lowers cell viability or growth by half. `Cc1cn([C@H]2C[C@H](F)[C@@H](CO)O2)c(=O)[nH]c1=O` [ALOVUDINE]: the values for the EC50 in data set [12], in data set [13] and in [14] were 1.6 nM, 3.2 nM and 70000 nM, respectively. Also, in data set [15], the CC50 is more than 100000 nM.

Source of the values: ChEMBL document CHEMBL5113536, “Triphosphate Prodrugs of the Anti-HIV-Active Compound 3'-Deoxy-3'-fluorothymidine (FLT)” (J Med Chem, 2022).
